Experimental findings from US9493486B2, “Diazaspirocycloalkane and azaspirocycloalkane” (Hoffmann-La Roche Inc., priority 2012, dated 2016) are described below.

The target in the assay is ATX (human His-tagged) (Homo sapiens (Human), UniProt Q13822). Description: Human ATX enzyme inhibition assay (fluorescence quenching, MR121 substrate). It is filed as biochemical. To be noted: 30 nM ATX, 1 μM MR121 substrate, 30° C. An excerpt: Human ATX Enzyme Inhibition Assay
Assay working solutions were made as follows:
Regarding `O=C(NCc1c[nH]nn1)N1CC2(CCN(C(=O)OCc3ccc(OC(F)(F)F)cc3F)CC2)C1` [Example 14.01, [2-Fluoro-4-(trifluoromethoxy)phenyl]methyl 2-((1H-triazol-4-ylmethyl)carbamoyl)-2,7-diazaspiro[3.5]nonane-7-carboxylate], half-maximal inhibition (IC50) required 41.5 nM.

For `CS(=O)(=O)c1cc(Cl)ccc1COC(=O)N1CCC2(CC1)CN(C(=O)c1ccc3[nH]nnc3c1)C2` [Example 12.27, 4-chloro-2-(methylsulfonyl)benzyl 2-(1H-benzo[d][1,2,3]triazole-5-carbonyl)-2,7-diazaspiro[3.5]nonane-7-carboxylate], the IC50 – broadly, the midpoint of a concentration-inhibition curve – was 140 nM.

In turn, `CS(=O)(=O)c1cc(Cl)cc(COC(=O)N2CCC3(CC2)CN(S(=O)(=O)c2ccc4[nH]c(=O)oc4c2)C3)c1` [Example 12.31, 3-chloro-5-(methylsulfonyl)benzyl 2-(2-oxo-2,3-dihydrobenzo[d]oxazol-6-ylsulfonyl)-2,7-diazaspiro[3.5]nonane-7-carboxylate] returned an IC50 of 22 nM.

In turn, `O=C(NC1CC2(C1)CN(C(=O)CCCc1ccccc1)C2)c1ccc2[nH]nnc2c1` [Example 1.08, N-(2-(4-phenylbutanoyl)-2-azaspiro[3.3]heptan-6-yl)-1H-benzo[d][1,2,3]triazole-5-carboxamide] came in with an IC50 of 3350 nM. Next, `O=C(NC1CC2(C1)CN(C(=O)OCc1cc(F)cc(C(F)(F)F)c1)C2)c1ccc2[nH]nnc2c1` [Example 12.23, 6-[(1H-benzotriazole-5-carbonyl)-amino]-2-aza-spiro[3.3]heptane-2-carboxylic acid 3-fluoro-5-trifluoromethyl-benzyl ester]: 1910 nM; `O=C(c1ccc2[nH]nnc2c1)N1CC2(CCN(c3nnc(-c4ccc(Cl)cc4)s3)CC2)C1` [Example 8, (1H-Benzo[d][1,2,3]triazol-5-yl)(7-(5-(4-chlorophenyl)-1,3,4-thiadiazol-2-yl)-2,7-diazaspiro[3.5]nonan-2-yl)methanone]: 178 nM. Next, `O=C(c1ccc2[nH]nnc2c1)N1CC2(CCN(S(=O)(=O)CCc3cccc(Cl)c3)CC2)C1` [Example 1.21, (1H-benzotriazol-5-yl)-{7-[2-(3-chloro-phenyl)-ethanesulfonyl]-2,7-diaza-spiro[3.5]non-2-yl}-methanone]: 821 nM; `O=C(NC1CC2(C1)CN(C(=O)c1ccc3[nH]nnc3c1)C2)OCc1cc(Cl)cc(Cl)c1` [Example 1.12, [2-(1H-benzotriazole-5-carbonyl)-2-aza-spiro[3.3]hept-6-yl]-carbamic acid 3,5-dichloro-benzyl ester]: 35 nM; `O=C(OCc1cnc(Cl)c(Cl)c1)N1CCC2(CC1)CN(C(=O)c1ccc3[nH]nnc3c1)C2` [Example 12.03, (5,6-dichloropyridin-3-yl)methyl 2-(1H-benzo[d][1,2,3]triazole-5-carbonyl)-2,7-diazaspiro[3.5]nonane-7-carboxylate]: 622 nM. The value for `CC(C)c1cc(Cl)ccc1OCC(=O)N1CCC2(CC1)CN(C(=O)C1CCc3[nH]nnc3C1)C2` (stereo not drawn) [Example 1.27, 2-(4-chloro-2-isopropylphenoxy)-1-(2-(4,5,6,7-tetrahydro-1H-benzo[d][1,2,3]triazole-5-carbonyl)-2,7-diazaspiro[3.5]nonan-7-yl)ethanone] was 41 nM; that for `O=C(NC1CC2(C1)CN(C(=O)OCc1cc(Cl)cc(OC(F)(F)F)c1)C2)c1ccc2[nH]nnc2c1` [Example 12.18, 6-[(1H-benzotriazole-5-carbonyl)-amino]-2-aza-spiro[3.3]heptane-2-carboxylic acid 3-chloro-5-trifluoromethoxy-benzyl ester] was 53.5 nM. Molecule `CS(=O)(=O)c1cc(COC(=O)N2CCC3(CC2)CN(C(=O)c2ccc4[nH]nnc4c2)C3)ccc1Cl` [Example 12.06, 4-chloro-3-(methylsulfonyl)benzyl 2-(1H-benzo[d][1,2,3]triazole-5-carbonyl)-2,7-diazaspiro[3.5]nonane-7-carboxylate] displayed an IC50 of 7240 nM. This IC50 lies about 140-fold higher than the previous one. `O=C(c1ccc2[nH]nnc2c1)N1CCC2(CCN(C(=O)c3cc4cc(Cl)ccc4o3)C2)C1` (stereo not drawn) [Example 6.7, (7-(1H-benzo[d][1,2,3]triazole-5-carbonyl)-2,7-diazaspiro[4.4]nonan-2-yl)(5-chlorobenzofuran-2-yl)methanone] showed an IC50 of 3930 nM. Next, `O=C(OCc1ccccc1)N1CC2(CC(NS(=O)(=O)c3ccc4[nH]c(=O)oc4c3)C2)C1` [Example 3.2, benzyl 6-(2-oxo-2,3-dihydrobenzo[d]oxazole-6-sulfonamido)-2-azaspiro[3.3]heptane-2-carboxylate]: 298 nM. With `O=C(/C=C/c1cc(Cl)cc(Cl)c1)N1CCC2(CC1)CN(C(=O)c1ccc3[nH]nnc3c1)C2` [Example 6, (E)-1-(2-(1H-benzo[d][1,2,3]triazole-5-carbonyl)-2,7-diazaspiro[3.5]nonan-7-yl)-3-(3,5-dichlorophenyl)prop-2-en-1-one], half-maximal inhibition (IC50) was put at 26 nM. Compared with the last molecule, the IC50 is about 11-fold lower. Next, `O=C(OCc1ccc(OCC(F)(F)F)c(F)c1)N1CCC2(CC1)CN(C(=O)C1CCc3nn[nH]c3C1)C2` (stereo not drawn) [Example 12.40, 3-fluoro-4-(2,2,2-trifluoroethoxy)benzyl 2-(4,5,6,7-tetrahydro-1H-benzo[d][1,2,3]triazole-6-carbonyl)-2,7-diazaspiro[3.5]nonane-7-carboxylate]: 2.5 nM; `CS(=O)(=O)c1cc(Cl)cc(COC(=O)N2CCC3(CC2)CN(C(=O)c2ccc4[nH]c(=O)oc4c2)C3)c1` [Example 2.1, 3-chloro-5-(methylsulfonyl)benzyl 2-(2-oxo-2,3-dihydrobenzo[d]oxazole-6-carbonyl)-2,7-diazaspiro[3.5]nonane-7-carboxylate]: 38 nM.

Molecule `O=C(OCc1cc(Cl)cc(Cl)c1)N1CCC2(CC1)CN(C(=O)c1ccc3[nH]c(=O)oc3c1)C2` [Example 5, 3,5-Dichlorobenzyl 2-(2-oxo-2,3-dihydrobenzo[d]oxazole-6-carbonyl)-2,7-diazaspiro[3.5]nonane-7-carboxylate] gave an IC50 of 7 nM. Next, `Cc1ccc(COC(=O)N2CC3(CC(NC(=O)c4ccc5[nH]nnc5c4)C3)C2)cc1Cl` [Example 12.24, 6-[(1H-benzotriazole-5-carbonyl)-amino]-2-aza-spiro[3.3]heptane-2-carboxylic acid 3-chloro-4-methyl-benzyl ester]: 229 nM. The value for `O=C(OCc1cc(Cl)cc(Cl)c1)N1CCC2(CC1)CN(C(=O)c1ccc3[nH]nnc3c1)C2` [Example 1, 3,5-Dichlorobenzyl 2-(1H-benzo[d][1,2,3]triazole-5-carbonyl)-2,7-diazaspiro[3.5]nonane-7-carboxylate] was 15 nM; that for `O=C(/C=C/c1cc(Cl)cc(Cl)c1)N1CCC2(CC1)CN(C(=O)c1ccc3[nH]c(=O)oc3c1)C2` [Example 6.4, 6-{7-[(E)-3-(3,5-dichloro-phenyl)-acryloyl]-2,7-diaza-spiro[3.5]nonane-2-carbonyl}-3H-benzooxazol-2-one] was 22 nM; that for `O=C(OCc1ccc(C(F)(F)F)cc1)N1CCC2(CC1)CN(C(=O)c1ccc3[nH]nnc3c1)C2` [Example 12.15, 4-(trifluoromethyl)benzyl 2-(1H-benzo[d][1,2,3]triazole-5-carbonyl)-2,7-diazaspiro[3.5]nonane-7-carboxylate] was 35 nM. The value for `CS(=O)(=O)c1cc(COC(=O)N2CCC3(CC2)CN(C(=O)c2ccc4[nH]nnc4c2)C3)cc(C(F)(F)F)c1` [Example 12.25, 3-(methylsulfonyl)-5-(trifluoromethyl)benzyl 2-(1H-benzo[d][1,2,3]triazole-5-carbonyl)-2,7-diazaspiro[3.5]nonane-7-carboxylate] was 92 nM. Molecule `O=C(CCc1ccc(OC(F)(F)F)cc1)N1CCC2(CC1)CN(C(=O)C1CCc3[nH]nnc3C1)C2` (stereo not drawn) [Example 1.28, 1-(2-(4,5,6,7-tetrahydro-1H-benzo[d][1,2,3]triazole-5-carbonyl)-2,7-diazaspiro[3.5]nonan-7-yl)-3-(4-(trifluoromethoxy)phenyl)propan-1-one] yielded an IC50 of 110 nM. Next, `O=C(OCc1csc(Cl)c1)N1CCC2(CC1)CN(C(=O)c1ccc3[nH]nnc3c1)C2` [Example 12.12, (5-chlorothiophen-3-yl)methyl 2-(1H-benzo[d][1,2,3]triazole-5-carbonyl)-2,7-diazaspiro[3.5]nonane-7-carboxylate]: 332 nM; `O=C(OCc1cc(Cl)cc(Cl)c1)N1CCC2(CCN(C(=O)c3ccc4[nH]nnc4c3)CC2)C1` [Example 1.19, 3,5-dichlorobenzyl 8-(1H-benzo[d][1,2,3]triazole-5-carbonyl)-2,8-diazaspiro[4.5]decane-2-carboxylate]: 39.5 nM. Next, `CS(=O)(=O)c1cc(Cl)cc(COC(=O)N2CCC3(CC2)CN(C(=O)c2ccc(S(N)(=O)=O)cc2)C3)c1` [Example 1.17, 3-chloro-5-(methylsulfonyl)benzyl 2-(4-sulfamoylbenzoyl)-2,7-diazaspiro[3.5]nonane-7-carboxylate]: 729 nM; `O=C(OCc1cc(Cl)cc(Cl)c1)N1CCC2(CCN(C(=O)c3ccc4[nH]nnc4c3)C2)C1` (stereo not drawn) [Example 12.16, 3,5-dichlorobenzyl 7-(1H-benzo[d][1,2,3]triazole-5-carbonyl)-2,7-diazaspiro[4.4]nonane-2-carboxylate]: 457 nM. With `O=C(OCc1ccc(OC(F)(F)F)cc1)N1CCC2(CC1)CN(C(=O)N1CCc3[nH]nnc3C1)C2` [Example 13, 4-(Trifluoromethoxy)benzyl 2-(4,5,6,7-tetrahydro-1H-[1,2,3]triazolo[4,5-c]pyridine-5-carbonyl)-2,7-diazaspiro[3.5]nonane-7-carboxylate], the IC50 turned out to be 3 nM. Next, `O=C(c1ccc2[nH]nnc2c1)N1CC2(CCN(c3nnc(-c4cc(Cl)cc(Cl)c4)o3)CC2)C1` [Example 7, (1H-benzo[d][1,2,3]triazol-5-yl)(7-(5-(3,5-dichlorophenyl)-1,3,4-oxadiazol-2-yl)-2,7-diazaspiro[3.5]nonan-2-yl)methanone]: 43 nM.
